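Cells were grown in 96-well plates and exposed to each compound for 48 hours at five concentrations; endpoints were interpolated linearly between bracketing concentrations, or set to the highest concentration if not reached. TGI: total growth inhibition.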
Test system: P388 leukemia
Experiment: NCI tumour cell line growth inhibition, 48 h

In the case of `O=C(Cn1ccnc1[N+](=O)[O-])N(CCO)CCO`, the TGI is reported as > 1250 µM.

`COC1/C=C/O[C@@]2(C)Oc3c(C)c(O)c4c(O)c(cc(O)c4c3C2=O)NC(=O)/C(C)=C\C=C\[C@H](C)C(O)[C@@H](C)[C@@H](O)[C@@H](C)[C@H](OC(C)=O)[C@@H]1C` (some centres not stated) was tested, and the TGI was 31.2 µM.
